In patent publication EP4722212A1, “NOVEL COMPOUND FOR INHIBITING PROTEIN KINASES AND PHARMACEUTICAL COMPOSITION COMPRISING SAME” (Magicbullettherapeutics Co., Ltd., priority 2023, dated 2024):
Like-named read-outs stand apart in the source and are kept apart here.

Key:
Assay in all cases: Kinase panel
Assay type in all cases: biochemical
[1] = molecular target: PYK2 (Homo sapiens, UniProt Q14289); details: PYK2, 1 µM; read-out: residual enzyme activity
Outline: (§1)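 Single-point screen at 1 µM in a biochemical kinase panel; readout is % residual enzyme activity; hit cut-off ≤40% remaining (≥60% inhibited).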

[2] = molecular target: GRK2 (Homo sapiens, UniProt P25098); details: GRK2, 1 µM; read-out: residual enzyme activity
Outline: as §1

[3] = molecular target: RSK1 (Homo sapiens, UniProt Q15418); details: RSK1, 1 µM; read-out: residual enzyme activity
Outline: as §1

[4] = molecular target: CHK2 (Homo sapiens, UniProt O96017); details: CHK2, 1 µM; read-out: residual enzyme activity
Outline: as §1

[5] = molecular target: MYO3A (Homo sapiens, UniProt Q8NEV4); details: read-out: residual enzyme activity
Outline: as §1

[6] = molecular target: CKIG3 (Homo sapiens, UniProt Q9Y6M4); details: CKIG3, 1 µM; read-out: residual enzyme activity
Outline: as §1

[7] = molecular target: IKKB/IKBKB (Homo sapiens, UniProt O14920); details: read-out: residual enzyme activity
Outline: as §1

[8] = molecular target: FLT3 (Homo sapiens, UniProt P36888); details: FLT3, 1 µM; read-out: residual enzyme activity
Outline: as §1

[9] = molecular target: PKACB (Homo sapiens, UniProt P22694); details: read-out: residual enzyme activity
Outline: as §1

[10] = molecular target: SIK3 (Homo sapiens, UniProt Q9Y2K2); details: SIK3, 1 µM; read-out: residual enzyme activity
Outline: as §1

[11] = molecular target: NEK7 (Homo sapiens, UniProt Q8TDX7); details: NEK7, 1 µM; read-out: residual enzyme activity
Outline: as §1

[12] = molecular target: PKCB1 (Homo sapiens, UniProt P05771); details: read-out: residual enzyme activity
Outline: as §1

[13] = molecular target: PKCG (Homo sapiens, UniProt P05129); details: read-out: residual enzyme activity
Outline: as §1

[14] = molecular target: TAOK2/TAO1 (Homo sapiens, UniProt Q9UL54); details: TAOK2/TAO1, 1 µM; read-out: residual enzyme activity
Outline: as §1

[15] = molecular target: STK22D/TSSK1 (Homo sapiens, UniProt Q9BXA7); details: STK22D/TSSK1, 1 µM; read-out: residual enzyme activity
Outline: as §1

[16] = molecular target: MSK1/RPS6KA5 (Homo sapiens, UniProt O75582); details: MSK1/RPS6KA5, 1 µM; read-out: residual enzyme activity
Outline: as §1

[17] = molecular target: MKK4 (Homo sapiens, UniProt P45985); details: MKK4, 1 µM; read-out: residual enzyme activity
Outline: as §1

[18] = molecular target: VRK1 (Homo sapiens, UniProt Q99986); details: VRK1, 1 µM; read-out: residual enzyme activity
Outline: as §1

[19] = molecular target: KDR/VEGFR2 (Homo sapiens, UniProt P35968); details: KDR/VEGFR2, 1 µM; read-out: residual enzyme activity
Outline: as §1

[20] = molecular target: PKN3/PRK3 (Homo sapiens, UniProt Q6P5Z2); details: PKN3/PRK3, 1 µM; read-out: residual enzyme activity
Outline: as §1

[21] = molecular target: PDK1/PDPK1 (Homo sapiens, UniProt O15530); details: PDK1/PDPK1, 1 µM; read-out: residual enzyme activity
Outline: as §1

[22] = molecular target: TNIK (Homo sapiens, UniProt Q9UKE5); details: read-out: residual enzyme activity
Outline: as §1

[23] = molecular target: TAOK1 (Homo sapiens, UniProt Q7L7X3); details: TAOK1, 1 µM; read-out: residual enzyme activity
Outline: as §1

[24] = molecular target: NEK6 (Homo sapiens, UniProt Q9HC98); details: NEK6, 1 µM; read-out: residual enzyme activity
Outline: as §1

[25] = molecular target: JAK3 (Homo sapiens, UniProt P52333); details: JAK3, 1 µM; read-out: residual enzyme activity
Outline: as §1

[26] = molecular target: NLK (Homo sapiens, UniProt Q9UBE8); details: read-out: residual enzyme activity
Outline: as §1

[27] = molecular target: MSSK1/STK23 (Homo sapiens, UniProt Q9UPE1); details: MSSK1/STK23, 1 µM; read-out: residual enzyme activity
Outline: as §1

[28] = molecular target: GRK5 (Homo sapiens, UniProt P34947); details: GRK5, 1 µM; read-out: residual enzyme activity
Outline: as §1

[29] = molecular target: HIPK1 (Homo sapiens, UniProt Q86Z02); details: HIPK1, 1 µM; read-out: residual enzyme activity
Outline: as §1

[30] = molecular target: HASPIN (Homo sapiens, UniProt Q8TF76); details: read-out: residual enzyme activity
Outline: as §1

[31] = molecular target: CDK4/CYCLIN D3 (Homo sapiens, UniProt P11802); details: CDK4/cyclin D3, 1 µM; read-out: residual enzyme activity
Outline: as §1

[32] = molecular target: TSSK3/STK22C (Homo sapiens, UniProt Q96PN8); details: read-out: residual enzyme activity
Outline: as §1

[33] = molecular target: VRK2 (Homo sapiens, UniProt Q86Y07); details: VRK2, 1 µM; read-out: residual enzyme activity
Outline: as §1

Sequence of TNIK (Q9UKE5 whole entry, species assumed): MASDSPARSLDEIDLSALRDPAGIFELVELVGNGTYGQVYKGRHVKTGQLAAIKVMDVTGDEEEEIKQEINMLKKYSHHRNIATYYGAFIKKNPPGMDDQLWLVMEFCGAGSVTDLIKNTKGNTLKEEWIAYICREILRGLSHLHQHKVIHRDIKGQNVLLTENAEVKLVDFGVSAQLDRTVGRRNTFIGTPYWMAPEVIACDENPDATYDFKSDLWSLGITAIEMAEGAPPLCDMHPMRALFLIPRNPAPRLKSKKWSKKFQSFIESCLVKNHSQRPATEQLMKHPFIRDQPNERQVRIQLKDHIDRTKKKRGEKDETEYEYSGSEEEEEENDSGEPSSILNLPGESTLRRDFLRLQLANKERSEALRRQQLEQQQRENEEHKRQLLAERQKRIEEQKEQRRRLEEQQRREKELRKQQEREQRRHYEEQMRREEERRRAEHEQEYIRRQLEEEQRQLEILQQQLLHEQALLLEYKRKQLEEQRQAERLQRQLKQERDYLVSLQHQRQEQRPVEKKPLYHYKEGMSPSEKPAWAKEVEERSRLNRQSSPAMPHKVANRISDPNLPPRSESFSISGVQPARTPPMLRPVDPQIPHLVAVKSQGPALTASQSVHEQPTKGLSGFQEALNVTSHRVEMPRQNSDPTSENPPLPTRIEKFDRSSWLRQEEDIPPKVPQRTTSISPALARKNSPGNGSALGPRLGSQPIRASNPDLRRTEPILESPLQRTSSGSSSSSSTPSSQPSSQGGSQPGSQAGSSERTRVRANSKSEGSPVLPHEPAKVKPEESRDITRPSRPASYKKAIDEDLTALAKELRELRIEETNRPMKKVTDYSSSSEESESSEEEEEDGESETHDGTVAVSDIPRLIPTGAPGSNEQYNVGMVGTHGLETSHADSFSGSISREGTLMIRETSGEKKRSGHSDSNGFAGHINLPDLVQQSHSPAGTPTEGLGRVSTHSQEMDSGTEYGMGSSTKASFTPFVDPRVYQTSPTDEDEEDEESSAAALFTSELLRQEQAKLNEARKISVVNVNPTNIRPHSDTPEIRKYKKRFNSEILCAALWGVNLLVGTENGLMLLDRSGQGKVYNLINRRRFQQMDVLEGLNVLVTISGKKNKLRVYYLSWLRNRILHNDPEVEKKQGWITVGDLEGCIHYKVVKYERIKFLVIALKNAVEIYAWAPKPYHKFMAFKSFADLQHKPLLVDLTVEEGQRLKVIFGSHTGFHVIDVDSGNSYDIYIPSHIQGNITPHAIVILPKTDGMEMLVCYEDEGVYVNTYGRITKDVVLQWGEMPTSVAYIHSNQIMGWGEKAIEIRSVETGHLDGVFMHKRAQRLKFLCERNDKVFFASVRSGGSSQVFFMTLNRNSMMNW
Sequence of MKK4 (P45985 whole entry, species assumed): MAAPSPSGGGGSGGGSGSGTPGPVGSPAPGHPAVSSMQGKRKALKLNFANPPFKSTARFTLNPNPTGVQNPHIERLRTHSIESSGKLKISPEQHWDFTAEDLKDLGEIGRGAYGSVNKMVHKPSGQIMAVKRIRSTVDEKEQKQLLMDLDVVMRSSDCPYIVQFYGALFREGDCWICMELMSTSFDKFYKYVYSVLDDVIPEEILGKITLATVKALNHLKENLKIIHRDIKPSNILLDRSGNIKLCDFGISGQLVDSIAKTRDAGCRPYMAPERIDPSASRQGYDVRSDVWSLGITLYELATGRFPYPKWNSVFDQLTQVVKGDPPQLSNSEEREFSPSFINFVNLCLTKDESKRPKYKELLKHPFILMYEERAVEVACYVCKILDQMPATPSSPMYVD
Sequence of PKCB1 (P05771 whole entry): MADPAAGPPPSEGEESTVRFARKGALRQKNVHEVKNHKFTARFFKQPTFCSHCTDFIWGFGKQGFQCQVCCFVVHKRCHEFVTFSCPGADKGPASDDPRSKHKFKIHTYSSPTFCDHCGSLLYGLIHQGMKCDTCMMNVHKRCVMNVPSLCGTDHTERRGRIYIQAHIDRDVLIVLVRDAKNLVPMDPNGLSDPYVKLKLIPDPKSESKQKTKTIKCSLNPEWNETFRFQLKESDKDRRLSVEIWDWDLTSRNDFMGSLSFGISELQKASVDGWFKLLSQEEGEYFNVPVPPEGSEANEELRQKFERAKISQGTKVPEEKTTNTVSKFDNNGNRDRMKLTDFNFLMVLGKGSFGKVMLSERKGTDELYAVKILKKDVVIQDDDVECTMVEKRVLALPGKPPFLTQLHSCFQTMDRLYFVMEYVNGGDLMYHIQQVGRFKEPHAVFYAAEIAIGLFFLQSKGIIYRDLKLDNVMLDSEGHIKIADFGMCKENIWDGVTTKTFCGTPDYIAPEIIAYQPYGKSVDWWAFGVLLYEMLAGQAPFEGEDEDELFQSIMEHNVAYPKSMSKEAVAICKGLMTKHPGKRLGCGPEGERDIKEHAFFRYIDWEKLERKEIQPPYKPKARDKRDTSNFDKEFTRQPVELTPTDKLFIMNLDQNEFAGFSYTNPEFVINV
Sequence of HASPIN (Q8TF76 whole entry, species assumed): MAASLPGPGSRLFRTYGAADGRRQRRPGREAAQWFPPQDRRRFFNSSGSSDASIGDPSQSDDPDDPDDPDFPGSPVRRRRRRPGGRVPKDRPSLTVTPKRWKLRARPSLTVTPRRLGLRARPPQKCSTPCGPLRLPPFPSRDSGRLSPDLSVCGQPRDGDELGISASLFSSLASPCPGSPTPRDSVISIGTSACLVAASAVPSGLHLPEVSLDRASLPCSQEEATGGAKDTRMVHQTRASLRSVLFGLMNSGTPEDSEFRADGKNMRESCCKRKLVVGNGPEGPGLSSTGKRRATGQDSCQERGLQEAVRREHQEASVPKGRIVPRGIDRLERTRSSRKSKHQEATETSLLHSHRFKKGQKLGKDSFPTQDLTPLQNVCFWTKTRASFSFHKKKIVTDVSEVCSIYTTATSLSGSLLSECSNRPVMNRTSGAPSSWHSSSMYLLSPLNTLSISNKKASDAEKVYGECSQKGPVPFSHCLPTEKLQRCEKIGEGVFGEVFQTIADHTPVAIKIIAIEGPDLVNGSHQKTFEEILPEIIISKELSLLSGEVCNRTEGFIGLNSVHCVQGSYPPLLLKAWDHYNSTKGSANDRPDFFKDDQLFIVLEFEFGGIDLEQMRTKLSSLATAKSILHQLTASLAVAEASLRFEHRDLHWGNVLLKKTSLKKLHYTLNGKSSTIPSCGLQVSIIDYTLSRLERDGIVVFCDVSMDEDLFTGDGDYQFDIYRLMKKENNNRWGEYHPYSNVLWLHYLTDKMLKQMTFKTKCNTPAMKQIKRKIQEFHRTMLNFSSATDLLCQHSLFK
Sequence of PYK2 (Q14289 whole entry, species assumed): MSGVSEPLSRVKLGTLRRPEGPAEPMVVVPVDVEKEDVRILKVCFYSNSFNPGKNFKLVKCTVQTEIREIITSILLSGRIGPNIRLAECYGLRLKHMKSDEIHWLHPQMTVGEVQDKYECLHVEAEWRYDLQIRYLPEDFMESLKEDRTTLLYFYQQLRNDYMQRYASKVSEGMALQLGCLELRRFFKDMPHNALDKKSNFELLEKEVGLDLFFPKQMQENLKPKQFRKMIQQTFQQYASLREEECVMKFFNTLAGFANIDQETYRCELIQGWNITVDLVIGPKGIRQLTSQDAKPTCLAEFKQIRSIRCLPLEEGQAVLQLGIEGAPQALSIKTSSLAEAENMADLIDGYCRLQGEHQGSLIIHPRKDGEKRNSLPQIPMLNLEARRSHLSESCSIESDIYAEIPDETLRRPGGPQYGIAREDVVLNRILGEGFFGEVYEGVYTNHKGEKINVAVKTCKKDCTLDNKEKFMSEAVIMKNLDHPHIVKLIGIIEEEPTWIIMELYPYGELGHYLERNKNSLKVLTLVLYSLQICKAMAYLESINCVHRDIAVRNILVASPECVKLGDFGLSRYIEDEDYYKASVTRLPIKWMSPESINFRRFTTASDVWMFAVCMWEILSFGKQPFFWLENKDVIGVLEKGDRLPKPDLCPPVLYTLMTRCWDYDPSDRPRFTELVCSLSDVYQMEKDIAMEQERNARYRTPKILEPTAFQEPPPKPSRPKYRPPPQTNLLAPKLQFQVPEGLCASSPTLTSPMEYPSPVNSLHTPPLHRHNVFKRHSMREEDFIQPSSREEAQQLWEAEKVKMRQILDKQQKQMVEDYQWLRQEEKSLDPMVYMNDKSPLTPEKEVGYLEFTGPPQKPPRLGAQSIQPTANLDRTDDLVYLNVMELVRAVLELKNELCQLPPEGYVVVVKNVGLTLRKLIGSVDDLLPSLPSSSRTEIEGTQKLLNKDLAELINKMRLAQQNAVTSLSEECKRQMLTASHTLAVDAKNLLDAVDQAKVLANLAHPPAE
Sequence of GRK5 (P34947 whole entry, species assumed): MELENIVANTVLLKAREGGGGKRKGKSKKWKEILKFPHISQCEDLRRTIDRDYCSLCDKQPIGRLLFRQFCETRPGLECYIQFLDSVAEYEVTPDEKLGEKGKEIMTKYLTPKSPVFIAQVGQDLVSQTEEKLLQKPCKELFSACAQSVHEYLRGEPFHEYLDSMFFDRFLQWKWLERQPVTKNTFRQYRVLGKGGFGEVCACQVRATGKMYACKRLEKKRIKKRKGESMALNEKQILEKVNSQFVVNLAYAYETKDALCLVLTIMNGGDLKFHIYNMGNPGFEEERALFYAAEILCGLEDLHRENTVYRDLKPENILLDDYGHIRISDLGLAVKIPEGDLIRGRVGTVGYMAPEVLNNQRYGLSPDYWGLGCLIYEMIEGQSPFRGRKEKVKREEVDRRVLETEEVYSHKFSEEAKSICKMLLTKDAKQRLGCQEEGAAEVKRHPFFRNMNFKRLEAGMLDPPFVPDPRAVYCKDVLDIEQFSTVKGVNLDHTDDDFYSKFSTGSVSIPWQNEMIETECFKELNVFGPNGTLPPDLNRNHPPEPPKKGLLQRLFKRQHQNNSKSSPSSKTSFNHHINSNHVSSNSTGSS

For `Cc1cn(-c2cc(C(=O)Nc3ccc(C)c(N4Cc5cnc(NC6CC6)nc5C5(CC5)C4=O)c3)cc(C(F)(F)F)c2)cn1` [Compound 8, N-(3-(2'-(cyclopropylamino)-7'-oxo-5'H-spiro[cyclopropane-1,8'-pyrido[4,3-d]pyrimidine]-6'(7'H)-yl)-4-methylphenyl)-3-(4-methyl-1H-imidazol-1-yl)-5-(trifluoromethyl)benzamide], the remaining activity at 1 µM [1] was at most 40%, the remaining activity at 1 µM [2] was over 40% and the remaining activity at 1 µM [3] was at most 40%. It also gave a remaining activity at 1 µM [4] of over 40%, a remaining activity at 1 µM [5] of over 40% and a remaining activity at 1 µM [6] of over 40%. The remaining activity at 1 µM [7] was over 40%, the remaining activity at 1 µM [8] was at most 40% and the remaining activity at 1 µM [9] was over 40%. For the same compound, the remaining activity at 1 µM [10] was at most 40%, the remaining activity at 1 µM [11] was over 40% and the remaining activity at 1 µM ([12]; PKCB1, 1 µM) was over 40%. For the same compound, the remaining activity at 1 µM [13] was over 40%, the remaining activity at 1 µM [14] was at most 40% and the remaining activity at 1 µM [15] was over 40%. For the same compound, the remaining activity at 1 µM [16] was over 40%, the remaining activity at 1 µM [17] was over 40% and the remaining activity at 1 µM [18] was over 40%. The remaining activity at 1 µM [19] was at most 40%, the remaining activity at 1 µM [20] was over 40% and the remaining activity at 1 µM [21] was over 40%. For the same compound, the remaining activity at 1 µM [22] was at most 40%, the remaining activity at 1 µM [23] was at most 40% and the remaining activity at 1 µM [24] was over 40%. It also gave a remaining activity at 1 µM [25] of at most 40%, a remaining activity at 1 µM [26] of over 40% and a remaining activity at 1 µM [27] of over 40%. It also gave a remaining activity at 1 µM [28] of over 40%, a remaining activity at 1 µM [29] of over 40% and a remaining activity at 1 µM [30] of over 40%. For the same compound, the remaining activity at 1 µM [31] was over 40%, the remaining activity at 1 µM [32] was over 40% and the remaining activity at 1 µM [33] was over 40%.

`Cc1ccc(Nc2ncc3c(n2)C2(CC2)C(=O)N(c2cc(NC(=O)c4cccc(C(F)(F)F)c4)ccc2C)C3)cn1` [Compound 51, N-(4-methyl-3-(2'-((6-methylpyridin-3-yl)amino)-7'-oxo-5'H-spiro[cyclopropane-1,8'-pyrido[4,3-d]pyrimidine]-6'(7'H)-yl)phenyl)-3-(trifluoromethyl)benzamide] was tested, and the remaining activity at 1 µM [1] was at most 40%, the remaining activity at 1 µM [2] was over 40% and the remaining activity at 1 µM [3] was at most 40%. It also gave a remaining activity at 1 µM [4] of over 40%, a remaining activity at 1 µM [5] of over 40% and a remaining activity at 1 µM [6] of over 40%. The remaining activity at 1 µM [7] was over 40%, the remaining activity at 1 µM [8] was at most 40% and the remaining activity at 1 µM [9] was over 40%. For the same compound, the remaining activity at 1 µM [10] was at most 40%, the remaining activity at 1 µM [11] was over 40% and the remaining activity at 1 µM ([12]; PKCbl, 1 µM) was over 40%. The remaining activity at 1 µM [13] was over 40%, the remaining activity at 1 µM [14] was at most 40% and the remaining activity at 1 µM [15] was over 40%. It also gave a remaining activity at 1 µM [16] of over 40%, a remaining activity at 1 µM [17] of over 40% and a remaining activity at 1 µM [18] of over 40%. It also gave a remaining activity at 1 µM [19] of at most 40%, a remaining activity at 1 µM [20] of over 40% and a remaining activity at 1 µM [21] of over 40%. The remaining activity at 1 µM [22] was at most 40%, the remaining activity at 1 µM [23] was at most 40% and the remaining activity at 1 µM [24] was over 40%. For the same compound, the remaining activity at 1 µM [25] was at most 40%, the remaining activity at 1 µM [26] was over 40% and the remaining activity at 1 µM [27] was over 40%. For the same compound, the remaining activity at 1 µM [28] was over 40%, the remaining activity at 1 µM [29] was over 40% and the remaining activity at 1 µM [30] was over 40%. The remaining activity at 1 µM [31] was over 40%, the remaining activity at 1 µM [32] was over 40% and the remaining activity at 1 µM [33] was over 40%.
